This note sets out measurements from PMC3585964, “Tissue Inhibitor of Metalloproteinases-3 Peptides Inhibit Angiogenesis and Choroidal Neovascularization in Mice” (PLoS ONE, 2013).

For assay [1], the system named is VEGFR-2 (KDR) in PAE/KDR cells. Kind of assay: VEGF-induced VEGFR-2 phosphorylation (immunoprecipitation/western blot). Format: cell-based, Porcine. As to conditions: 20 µM peptide, 50 ng/ml VEGF. Here is the method: (§1) Porcine Aortic Endothelial cells expressing VEGFR-2 (PAEKDR) were cultured in Ham’s F-12/DMEM medium supplemented with 10% fetal bovine serum (FBS) (Hyclone), 50 units/ml penicillin and 50 µg/ml streptomycin as described previously. Recombinant human VEGF was a kind gift from Genentech, CA. Antibodies: Anti-Phosphotyrosine clone 4G10 (Upstate Biotechnology/Millipore, Billerica, MA), monoclonal anti-Flk-1 (A-3) (Santa Cruz Biotechnology, Santacruz, CA), MAPK and phospho-specific MAPK antibodies (Calbiochem-Novabiochem Corporation/EMD chemicals, Gibbstown, NJ).
(§2) Immunoprecipitates of cell lysates with the indicated antibodies were subjected to SDS-PAGE and western blot analysis. Proteins were detected with either a HRP-conjugated anti-rabbit or anti-mouse IgG antibody (Amersham Pharmacia Biotech., Piscataway, NJ) followed by ECL. […]
(§3) Figure 3 Effects of TIMP-3 peptides on VEGF signaling in endothelial cells. […] Cell lysates were separated by SDS-PAGE (10%) and analyzed by immunoprecipitation with an anti-KDR anti-body followed by immunoblotting with an anti-phosphotyrosine antibody, 4G10 (top panel). KDR protein was analyzed by immunoprecipitation and immunoblotting of cell lysates using anti-KDR antibody (bottom panel). (b) Densitometric quantitation of 210-kDa bands for phospho- or total mature form of KDR. […]
In general terms: In western blotting, separated proteins are transferred to a membrane and probed.

In assay [2] the test system is PAE/KDR cells. The experiment in a line: Modified Boyden chamber migration assay. As to conditions: peptide up to 20 µM; 50 ng/ml VEGF, 4 h 37°C, mini-Boyden chamber; quadruplicate samples. Type of assay: cell-based, Porcine. As to the method: as §1
A modified Boyden chamber assay was performed as described previously. Briefly, 8.0 µm pore PVPF polycarbonate membranes were pre-coated with 100 µg/ml collagen type I in 0.2 N acetic acid (Cohesion technologies, Inc. Palo Alto, California). VEGF at the indicated concentrations was placed in the lower chamber, and cells (2×10^5) in serum-free medium were placed in the upper chambers. […] The number of migrating cells per well was evaluated by light microscopy.
Figure 4 Effects of TIMP-3 peptides on VEGF-mediated EC migration. […] Cells were analyzed for migration towards 50 ng/ml VEGF in the presence or absence of increasing concentrations of loop 6 (a) and tail peptides (b) or 20 µM loop 5 or N-peptide (c), respectively, using a mini-Boyden chamber incubated at 37°C for 4 h.

Assay [3] relates to PAE/KDR cells. The experiment in a line: Actin reorganization / membrane ruffle formation (FITC-phalloidin). Format: cell-based, Porcine. The following applies: peptide at doses as high as 20 µM; 50 ng/ml VEGF 30 min 37°C. Here is the method: as §1
Subconfluent cells cultured on Falcon culture slides (BD Biosciences) were serum-starved overnight and stimulated for 30 min at 37°C with 50 ng/ml VEGF or control buffer. The cells were fixed with 3.7% paraformaldehyde in PBS for 30 min at 4°C and permeabilized with 0.2% Triton X-100 for 20 min at room temperature. Following rinsing with PBS, the cells were incubated with fluorescein isothiocyanate (FITC)-labeled phalloidin in PBS (0.66 µg/ml, Sigma Aldrich, St. Louis, MO) for 20 min at room temperature, washed with PBS and analyzed by fluorescence microscopy.
Figure 5 Effects of TIMP-3 peptides on VEGF-mediated actin reorganization. TIMP-3 loop 6 and tail but not loop 5 and N-peptide inhibit VEGF-induced actin reorganization in PAE/KDR cells. […]

Assay [4] relates to PAE/KDR cells. The experiment in a line: VEGF-induced endothelial cell proliferation. Format: cell-based, Porcine. As to conditions: 1 µM peptide, 5 days; for Effect on VEGF-induced endothelial cell proliferation (in words): VEGF 5 ng/ml, ** p<0.01 vs VEGF control in figure legend. Here is the method: as §1
Cells were seeded at a density of 2000 cells/well in 24 well culture plates and cultured for 24 h in growth medium. After synchronization overnight in serum-free medium supplemented with 0.1% BSA, the cells were stimulated with or without VEGF […] in the presence or absence of the indicated concentrations of TIMP-3 peptides. After a 5-day incubation, cells were trypsinized and counted using a Coulter particle counter.
Figure 6 Effects of TIMP-3 peptides on VEGF-mediated EC proliferation. […] Serum-starved cells were incubated with or without VEGF (5 ng/ml) in the presence or absence of the 1 µM of TIMP-3 peptides for 5 days.

In assay [5] the test system is ERK1 (p44) and ERK2 (p42) in PAE/KDR cells. The experiment in a line: VEGF-stimulated ERK1/2 (MAP kinase) phosphorylation (western blot). Type of assay: cell-based, Porcine. The following applies: 20 µM peptide. As to the method: as §1, §2, §3
For assay [6], the target named is VEGFR-2 (KDR/Fc chimera) binding to VEGF (Homo sapiens, UniProt P35968). The experiment in a line: Competitive ELISA, binding of sVEGFR-2/Fc to immobilized VEGF. As to conditions: competitive ELISA, 50 ng/ml sVEGFR-2, peptides in 0.5 M Tris-HCl pH 7.5. (In general: ELISA stands for enzyme-linked immunosorbent assay.)
Description: (§4) 96 well EIA/RIA strip plates (COSTAR) were coated with 80 ng/ml recombinant VEGF overnight at 4°C, washed and blocked with blocking buffer (1% BSA and 5% sucrose) overnight at 4°C. Series of dilutions were prepared for recombinant proteins representing WT-TIMP-3, NT2:CT3 and N-T3 in PBS or synthetic peptides corresponding to T3-loop 5, T3-loop 6, T3-N or T3-tail peptides in 0.5 M Tris-HCl (pH 7.5). The diluents were mixed with 50 ng/ml recombinant human VEGFR-2 (KDR/Fc chimera, recombinant human VEGFR-1 (Flt-1)/Fc chimera (R&D Systems, Minneapolis, MN) or control human lgG (Sigma Aldrich, St Louis, MO). The mixtures were then added to the VEGF-coated well in a final volume of 100 µL in PBS and incubated for 2 hours at room temperature. Bound VEGFR-2 was detected by HRP-conjugated anti-human lgG(Fc specific) (1∶1000).
Assay [7] has as its system VEGFR-1 (Flt-1)/Fc chimera binding to VEGF. Kind of assay: Competitive ELISA, binding of sVEGFR-1/Fc to immobilized VEGF. As to conditions: 50 ng/ml sVEGFR-1 (Flt-1). Set-up: species or system human.
Description: as §4

Entries after “also recorded” stand apart in the source; their conditions may differ.

Chain of VEGFR-2 (KDR/Fc chimera) binding to VEGF (P35968 with tags, fused parts or gaps limits assumed): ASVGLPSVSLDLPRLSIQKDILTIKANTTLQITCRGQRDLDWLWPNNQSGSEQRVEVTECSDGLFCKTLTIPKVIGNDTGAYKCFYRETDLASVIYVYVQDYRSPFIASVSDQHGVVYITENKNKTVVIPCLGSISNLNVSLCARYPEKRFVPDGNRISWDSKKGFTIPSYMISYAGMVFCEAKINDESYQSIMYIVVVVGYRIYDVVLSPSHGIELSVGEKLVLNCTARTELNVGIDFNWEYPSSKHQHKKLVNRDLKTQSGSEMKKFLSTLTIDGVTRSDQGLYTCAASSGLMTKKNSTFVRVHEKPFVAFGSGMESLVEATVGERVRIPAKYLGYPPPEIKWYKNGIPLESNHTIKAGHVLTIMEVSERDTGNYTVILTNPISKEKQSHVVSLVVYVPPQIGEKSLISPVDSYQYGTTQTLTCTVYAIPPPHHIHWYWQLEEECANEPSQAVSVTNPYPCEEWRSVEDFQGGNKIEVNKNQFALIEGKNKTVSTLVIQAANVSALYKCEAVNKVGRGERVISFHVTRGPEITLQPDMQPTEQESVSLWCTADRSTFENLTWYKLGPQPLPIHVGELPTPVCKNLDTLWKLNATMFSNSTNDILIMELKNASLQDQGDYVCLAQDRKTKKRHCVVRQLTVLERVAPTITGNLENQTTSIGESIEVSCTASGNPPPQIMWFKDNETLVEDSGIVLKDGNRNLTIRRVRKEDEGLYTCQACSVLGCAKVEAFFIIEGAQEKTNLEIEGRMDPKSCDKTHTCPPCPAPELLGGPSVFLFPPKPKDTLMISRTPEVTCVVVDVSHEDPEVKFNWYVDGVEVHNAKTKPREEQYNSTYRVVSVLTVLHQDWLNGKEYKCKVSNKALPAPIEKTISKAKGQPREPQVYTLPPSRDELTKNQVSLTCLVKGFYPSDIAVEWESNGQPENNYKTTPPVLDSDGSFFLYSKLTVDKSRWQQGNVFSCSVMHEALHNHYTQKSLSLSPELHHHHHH

For the sequence KIKSCYYLPCFVTS [T3-loop 5], the “Inhibition of VEGF-induced VEGFR-2 activation (phosphorylation)” value in assay [1] is “failed to inhibit VEGF-induced receptor activation”. In addition, the “Inhibition of VEGF-induced migration” value in the assay on PAE/KDR cells [2] is on record as “failed to inhibit VEGF-induced migration”. For the same sequence, in the assay on PAE/KDR cells [3], the “Inhibition of VEGF-stimulated membrane ruffle formation” value was “neither T3-loop 5 nor T3-N peptide at doses as high as 20 µM inhibited the formation of membrane ruffles”. In the assay on PAE/KDR cells [4], the “Possible induction of endothelial cell proliferation” value is given as “may in fact induce proliferation of endothelial cells” and the “Effect on VEGF-induced endothelial cell proliferation (in words)” value is listed as “neither T3-loop 5 nor T3-N peptide showed inhibitory properties”. Besides, the “Inhibition of VEGF-stimulated MAP kinase activation” value in assay [5] was “neither loop 5 nor N-peptide, even at higher concentrations (20 µM) inhibited VEGF-stimulated MAP kinase activation”. The “Effect of synthetic peptides on VEGF binding to sVEGFR-2 (in words)” value (“Effect … to sVEGFR-2 (in words)” below) in assay [6] is given as “did not show any inhibitory activity”. In addition, the “Effect … to sVEGFR-2 (in words)” value in assay [6] (listed as Loop5) is recorded as “have no effect on sVEGFR-2-VEGF complexes”. The “Effect of synthetic peptides on VEGF binding to VEGFR-1 (in words)” value in assay [7] is “unable to inhibit sVEGFR-1-VEGF complexes”.
Regarding RGFTKMPHVQYIHTEASESL [T3-N peptide], in assay [1], the “Inhibition of VEGF-induced VEGFR-2 activation (phosphorylation)” value is “failed to inhibit VEGF-induced receptor activation”. Moreover, the “Inhibition of VEGF-induced migration” value in the assay with PAE/KDR cells [2] is listed as “failed to inhibit VEGF-induced migration”. Also, the “Inhibition of VEGF-stimulated membrane ruffle formation” value with PAE/KDR cells [3] is given as “neither T3-loop 5 nor T3-N peptide at doses as high as 20 µM inhibited the formation of membrane ruffles”. In addition, in the assay on PAE/KDR cells [4], the “Possible induction of endothelial cell proliferation” value is “may in fact induce proliferation of endothelial cells” and the “Effect on VEGF-induced endothelial cell proliferation (in words)” value is given as “neither T3-loop 5 nor T3-N peptide showed inhibitory properties”. Also, the “Inhibition of VEGF-stimulated MAP kinase activation” value in assay [5] is on record as “neither loop 5 nor N-peptide, even at higher concentrations (20 µM) inhibited VEGF-stimulated MAP kinase activation”. In addition, in assay [6], the “Effect … to sVEGFR-2 (in words)” value is on record as “did not show any inhibitory activity; also recorded: have no effect on sVEGFR-2-VEGF complexes”. The “Effect of synthetic peptides on VEGF binding to VEGFR-1 (in words)” value in assay [7] is recorded as “unable to inhibit sVEGFR-1-VEGF complexes”.
